Laboratory results taken from patent publication US7198945B2, “Cell having modified cell membrane” (Teruyuki Nagamune, priority 2001, dated 2007).
“Also recorded” adds a separate entry of the source.

Legend:
[1] = system: mouse fibroblast cell line NIH3T3; experiment: Anchoring of conjugates to cell membranes, observed by confocal laser scanning microscope; settings: for Anchoring to cell surface: Mouse fibroblasts NIH3T3, 37° C. for 5 min, confocal microscope, 1000 magnifications
Method: Mouse fibroblasts NIH3T3 were cultured at 37° C. under 5% CO2 concentration using Dulbecco's Modified Eagle's Medium supplemented with 10% fetal calf serum and Glass bottom Microwell Dishes (35 mm dish, Uncoated, No. 0 Coverslip). The cells were cultured until the culture was approximately 80% confluent for 20 hours to 45 hours. […] The Glass bottom Microwell Dishes with NIH3T3 cells attached thereto were rinsed with 2 mL of phosphate buffered saline (the same as described above) which was subjected to filtration sterilization beforehand. Then, 0.1 mL of the polyethylene oxide oleylether-biotin conjugate solution was added to the NIH3T3 cells attached on the glass surface and a reaction was performed at 37° C. for 5 min. After the reaction, the cells were washed twice with 2 mL of phosphate buffered saline. Then, 0.1 mL of phosphate buffered saline containing 6.7 nM streptavidin and fluorescein conjugate (Molecular Probes; Cat# S-869) (hereinafter referred to as “fluorescein-labeled streptavidin”) was added to the cells, followed by incubation at 37° C. for 20 min.
The modification of the cell membranes was verified by observing the cells under a confocal laser scanning microscope (Leica).

[2] = system: Chinese hamster ovarian follicle cell line CHO; experiment: Anchoring of EGFP conjugate to cell membranes, observed by confocal laser scanning microscope; assay type: cell-based; parameters: Anchoring to cell surface: key to the marks not given beside the values
From the text: Therefore, it was verified that the conjugate can be anchored to cells other than mouse cells.

[3] = system: suspended cells (32D, Ba/F3 and 9E10 cells); experiment: Anchoring of EGFP conjugate to suspended cells, flow cytometer; assay type: cell-based, mouse; parameters: Anchoring to cell surface: key to the marks not given beside the values
Method: (§1) Mouse hybridoma 9E10 was cultured at 37° C. under 5% CO2 concentration using RPMI 1640 media (“Nissui” powder, NISSUI PHARMACEUTICAL CO., LTD., Cat# 05918) supplemented with 10% fetal calf serum. […] 32D, Ba/F3 and 9E10 cells (hereinafter, generically called as “suspended cells”) were centrifuged to collect 1×10^6 cells. Each of the cell was centrifuged for washing with 13 mL of phosphate buffered saline. […] Then the cells were centrifuged for washing once with 13 mL of phosphate buffered saline, and then 1 mL of phosphate buffered saline was added to each cell pellet.
(§2) Respective treated cell suspensions were observed under a flow cytometer (Coulter, EPICS-C). […] Thus, it was verified that the polyethylene oxide oleylether-EGFP can be anchored to suspended cells.

mouse hybridoma 9E10 = experiment: Flow cytometer fluorescence intensity of treated suspended cells; assay type: cell-based; settings: 37° C. for 5 min
Method: as §1, §2

[4] = system: mouse myeloid cell line 32D; experiment: as above; assay type: cell-based; settings: 37° C. for 5 min
Method: as §1, §2

[5] = system: mouse pro-B cell line Ba/F3; experiment: as above; assay type: cell-based; settings: 37° C. for 5 min
Method: as §1, §2

[6] = NIH3T3, confocal laser scanning microscope

Polyethylene Oxide Oleylether (n=40; Average Molecular Weight of 2250)-biotin Conjugates [Example 8]
Anchoring to cell surface [1]: ++

Oleic Acid-biotin [Example 15, reference compound]
Anchoring to cell surface [1]: −
fluorescence on cell membranes / anchoring (result in words) [1, 6]: no fluorescence from fluorescein was observed

NCCOCCOCCNC(=O)CCCC[C@@H]1SC[C@@H]2NC(=O)N[C@@H]21 [biotin-NH2, Biotin-PEO-Amine, reference compound]
fluorescence on cell membranes / anchoring (result in words) [1, 6]: no fluorescence from fluorescein was observed

Polyethylene Oxide Oleylether (n=15; Average Molecular Weight of 1100)-biotin Conjugates [Example 7]
Anchoring to cell surface [1]: ++

polyethylene oxide oleylether succinate [reference compound]
fluorescence on cell membranes / anchoring (result in words) [1, 6]: no fluorescence from fluorescein was observed

Polyethylene Oxide Oleylether (n=180; Average Molecular Weight of 8400)-biotin Conjugates [Example 9]
Anchoring to cell surface [1]: ++

Amino Polyethylene Oxide Oleylether (n=90, Average Molecular Weight of 4400)-biotin Conjugate [Example 12]
Anchoring to cell surface [1]: ++
fluorescence on cell membranes / anchoring (result in words) [1, 6]: remain unchanged and still excellent

Polyethylene Oxide Stearyl Ether (n=15: Average Molecular Weight of 1100)-biotin Conjugates [Example 10]
Anchoring to cell surface [1]: +
fluorescence on cell membranes / anchoring (result in words) [1, 6]: fluorescence from fluorescein was observed on the cell membranes of the NIH3T3 cells

Polyethylene Oxide Oleylether (n=90, Average Molecular Weight of 4400)-biotin Conjugate [Example 2]
Anchoring to cell surface [1]: ++
time in which conjugates were anchored to all of the cell membranes ([1]; NIH3T3, 37° C.): ≤ 5 min
fluorescence on cell membranes / anchoring (result in words) ([1]; NIH3T3; confocal laser scanning microscope; average molecular weight of 4400)-biotin co): fluorescence deriving from fluorescein was observed on the cell membranes of all of the cells in the field; also recorded: fluorescence from fluorescein was specifically observed only in the cell membranes
binding of biotin to streptavidin after anchoring ([1]; NIH3T3, fluorescein-labeled streptavidin): not inhibited

Polyethylene Oxide Nonylphenyl Ether (n=40, Average Molecular Weight of 2160)-biotin Conjugate [Example 17, reference compound]
Anchoring to cell surface [1]: −
fluorescence on cell membranes / anchoring (result in words) [1, 6]: no fluorescence from fluorescein was observed

Fluorescent-Labeled (Fluorescein)-Polyethylene Oxide-Modified Dioleoyl Phosphatidyl Ethanolamine [Example 11]
Anchoring to cell surface [1]: ++
fluorescence on cell membranes / anchoring (result in words) [1, 6]: Fluorescence from fluorescein was observed on the cell membranes of all the NIH3T3 cells

Polyethylene Oxide Oleylether (n=90, Average Molecular Weight of 4400)-Green Fluorescent Protein EGFP Conjugate [Example 4]
fluorescence from EGFP on cell membranes (result in words) ([2]; CHO cells, confocal laser scanning microscope): fluorescence from EGFP was observed on the cell membranes of all of the CHO cells
Anchoring to cell surface ([2]; Chinese hamster ovarian follicle cells CHO, confocal microscope): ++
Anchoring to cell surface ([3]; Suspended cell): ++
fluorescence intensity of cells compared to cells treated only with EGFP (result in words) ([3]; suspended cells, flow cytometer): an increased number of the cells with a stronger fluorescence intensity was observed
relative value of fluorescence intensity of cells (mouse hybridoma 9E10): 49.6
relative value of fluorescence intensity of cells [4]: 30.1
relative value of fluorescence intensity of cells [5]: 36.7
Anchoring to cell surface [1]: ++
fluorescence on cell membranes / anchoring (result in words) [1, 6]: anchored to the cell membranes
